Test results published in patent publication US12478661B2, “Lung cell treatments to prevent or treat disease” (THE JOHNS HOPKINS UNIVERSITY, priority 2017, dated 2025).

Legend:
[1] = system: HBEKT cells; experiment: Seahorse Mitostress cellular metabolism (OCR, ATP production, proton leak); format: cell-based, human; conditions: 30 min after injection, CATR 20 μM, BKA 4 μM
Description: For metabolic analysis, HBEKT cells were cultured in 96-well Seahorse assay plates (Agilent) and infected with adenovirus constructs for ANT1, ANT2 and control for target overexpression at 48 hours (MOI 40, Vector BioLabs) or siRNA target suppression using siRNA and Lipofectamine as described above for ANT1, ANT2 or non-targeting control siRNA at 72 hours. After viral infection or siRNA transfection, cells were treated for 4 hours with KSFM media alone or 20% CSE. Cells were washed once in KSFM, followed by washes in buffered Seahorse Assay medium (pH 7.4) and subsequent metabolic testing according to the manufacturer's protocol (Agilent Seahorse XF96). Oligomycin (2 μM, ATPase inhibitor), FCCP (0.25 μM mitochondrial uncoupler) and a cocktail of rotenone (0.5 μM, ETC complex I inhibitor) and antimycin A (0.5 μM, ETC complex III inhibitor) were sequentially injected after three basal rates were measured. Sample measurements were normalized to total cellular mass determined by CyQuant Assay according to the manufacturer protocol (Molecular Probes, ThermoFisher). For experiments including ANT specific inhibitors, carboxyatractyloside (CATR, 20-μM, Sigma), Bongkrekic acid (BKA, 4-μM, Sigma) or vehicle control were injected into wells after basal OCR measurements were taken followed by repeat OCR measurements 30 minutes after compound injection. […]

[2] = system: primary ciliated normal human bronchial epithelial cells (NHBEs); experiment: Airway surface liquid (ASL) thickness in primary NHBEs at air liquid interface; format: cell-based; conditions: CATR 20 μM; for effect on the ANT2 overexpression increase in ASL: BKA 4 μM apical 18 hours, apyrase 10 units 4 hours
Description: (§1) The apical surface of cells was washed once with PBS 18 hours prior to the addition of Texas Red. ASL was visualized by adding 10-kD Texas Red-dextran (17.5 μl per 12-well insert, ThermoFisher) to the apical surface of NHBE or HBEKT cultures at air liquid interface, as previously described. ASL was imaged 4 hours later by acquiring 4×4 tiled z-stacks by live-cell confocal microscopy with a heat and CO2 controlled stage (Zeiss 780 with a 40× water objective). Fluorinert ([…] was added to the top of the insert cultures immediately prior to imaging to prevent evaporation. Z-stacks were analyzed by segmentation and pixel thickness analysis. For experiments with ANT inhibitors, CATR (20 μM, Sigma) and BKA (4 μM, Sigma) in 20 μl PBS (or control PBS alone) were added to the apical surface of ALI cultures (NHBEs or HBEKTs) 18 hours prior to ASL assessment. Texas Red was added 4 hours prior to ASL testing. For apyrase treatment, 10 units of apyrase (Sigma) was added with Texas Red-dextran as described above 4 hours prior to ASL assessment.
Thickness across the sample was computed using a custom script, written in Matlab (Mathworks, Natick, MA). Briefly, for each value x in the three-dimensional images, Im(x,y, z), the resultant (y, z) slice was segmented using adaptive thresholding (Matlab command: imbinarize), followed by operations to fill holes (imfill), morphological opening (imopen) and filtering of small regions (bwareaopen) (FIG. 13a). The threshold level was adjusted after preprocessing the complete image and the process repeated. For each y in this binary image, the number of segmented pixels was counted, giving a measure of the thickness in the (x, y) location; see FIG. 13. This gave a histogram of depths over the image (FIG. 13c). An average depth was computed for all pixels in which a non-zero depth was detected (to avoid edge effects). The process was repeated by fixing y and working with the (x, z) slice. The differences between the averages were typically less than 1-2%. Thickness in pixels was converted to μm using a slice thickness of 0.46 μm, the step size used to collect the z-stack.

[3] = system: HBEKT cells; experiment: Airway surface liquid (ASL) height in HBEKTs at air liquid interface; format: cell-based, human; conditions: CATR 20 μM, BKA 4 μM
Description: as §1
Thickness across the sample was computed using a custom script, written in Matlab (Mathworks, Natick, MA). […] For each y in this binary image, the number of segmented pixels was counted, giving a measure of the thickness in the (x, y) location; see FIG. 13. […]

| Compound | ATP production after ANT inhibitor [1] | basal oxidative respiration after ANT inhibitor [1] | effect on the ANT2 overexpression increase in ASL [2] | effect on the ANT2 enhancement of ASL height [3] | ASL in control virus-treated cells [2] |
| --- | --- | --- | --- | --- | --- |
| CO[C@H](C/C=C\C=C\CC/C=C/C[C@H](C)/C=C/C(=C\C(=O)O)CC(=O)O)/C(C)=C\C=C(/C)C(=O)O [Bongkrekic acid] | halted | halted | abrogated | abolished |  |
| C=C1[C@@H]2CC[C@H]3[C@]4(C)C[C@H](O[C@@H]5O[C@H](CO)[C@@H](OS(=O)(=O)O)[C@H](OS(=O)(=O)O)[C@H]5OC(=O)CC(C)C)CC(C(=O)O)(C(=O)O)[C@H]4CC[C@]3(C2)[C@H]1O [carboxyatractyloside] |  |  | abrogated | abolished | trend towards decreasing ASL |
| apyrase |  |  | reversed |  |  |
